From patent publication US12534514B2, “Biological and synthetic molecules inhibiting respiratory syncytial virus infection” (Fraunhofer-Gesellschaft zur Förderung der angewandten …, priority 2019, dated 2026)
Square brackets hold non-standard residues; d marks the D form. Tyr(3,5-I2) = N[C@@H](Cc1cc(I)c(O)c(I)c1)C(=O)O; Chg = N[C@H](C(=O)O)C1CCCCC1; Cpa = not defined here

Key:
[1] = tested on: RSV (ATCC VR-26—Long strain); experiment: RSV plaque reduction assay on human epithelial cells (HEp-2); format: cell-based
Description: FIG. 1: Scheme of the used inhibition experiments. RSV-plaque reduction assay on human epithelial cells (HEp-2). HEp-2 cells were seeded in 96-well plate 24 h prior to infection (left). Next day, cells were infected with RSV (middle, white arrow). Simultaneously, peptides at concentrations of 20 μM were added to the cells (middle, black arrow). The inhibitory activity was determined 48 post infection by counting viral plaques after immunocytochemical staining using RSV-specific monoclonal antibody (right, black-checked arrow).
The designed peptides were synthesized and screened for their inhibitory activity against RSV in a cell culture-based plaque reduction assay as illustrated in FIG. 1. In detail, Anti-RSV activity was assessed in plaque reduction assay as follows: HEp-2 cells were seeded in a 96-well plate 24 h prior to infection. […] The inhibitory activity was determined 48 h post infection by counting viral plaques after immunocytochemical staining using RSV-specific monoclonal antibody.
Anti-RSV activity was assessed in plaque reduction assay. […] The inhibitory activity was determined 48 h post infection by counting viral plaques after immunocytochemical staining using RSV-specific antibody.
In detail, anti-RSV activity was assessed in plaque reduction assay. […] Viral plaques were counted after immunocytochemical staining using RSV-specific antibody at 48 h after infection. […]

active RSV = experiment: ELISA binding of DNA-peptide construct to RSV; conditions: peptides coupled to DNA; FIG. 6B
From the text: FIG. 6: Binding of novel DNA-Peptide construct to RSV. […] The single compounds are not in a representative scale. TMB=3,3′,5,5′-Tetramethylbenzidine, HRP=Horseradish peroxidase. […] “Only Anti-RSV antibody” and “Anti-RSV antibody+RSV” represent internal ELISA controls and lack components described in FIG. 6A. The other three samples have all components described in FIG. 6A. Each bar results from the mean values of triplicates±SD.
Binding of newly developed peptides 6 (Ac-[Chg][Cpa]VSTT[Tyr3,5-I2]LPHYFDN-NH2) and 12 (Ac-[Chg][Nle][Chg]STTYLPHYFDN-NH2) to active RSV was verified by enzyme-linked immunosorbent assay (FIG. 6).
FIG. 6A illustrates the scheme of the used ELISA. It has to be noted that the single compounds are not in a representative scale. […] Unspecific binding of RSV and/or RSV-antibody to neutravidin was excluded by using the two other controls.

For LVVSTTYLPHYFDN (Ac-LVVSTTYLPHYFDN-NH2), which “inhibition of infection with RSV on human epithelial cells” value ([1]; concentration of 20 μM, RSV Long, 48 h post infection, FIG. 3B) is on record?
The value was > 50%.

What about the “inhibition of infection with RSV on human epithelial cells (screen of truncated peptides, FIG. 2)” value ([1]; peptides at 20 μM added simultaneously with RSV, plaques counted 48 h post infection) of the same substance?
The value was “able to inhibit infection with RSV”.

For “Ac-[Chg][Nle][Chg]STTYLPHYFDN-NH2 (XXXSTTYLPHYFDN; HELM PEPTIDE1{[ac].[O=C([C@@H](N[*:1])C1CCCCC1)[*:2]].[Nle].[O=C([C@@H](N[*:1])C1CCCCC1)[*:2]].S.T.T.Y.L.P.H.Y.F.D.N.[am]}$$$$V2.0; SMILES CCCC[C@H](NC(=O)[C@@H](NC(C)=O)C1CCCCC1)C(=O)N[C@H](C(=O)N[C@@H](CO)C(=O)N[C@H](C(=O)N[C@H](C(=O)N[C@@H](Cc1ccc(O)cc1)C(=O)N[C@@H](CC(C)C)C(=O)N1CCC[C@H]1C(=O)N[C@@H](Cc1c[nH]cn1)C(=O)N[C@@H](Cc1ccc(O)cc1)C(=O)N[C@@H](Cc1ccccc1)C(=O)N[C@@H](CC(=O)O)C(=O)N[C@@H](CC(N)=O)C(N)=O)[C@@H](C)O)[C@@H](C)O)C1CCCCC1) [peptide 12]”, which “binding to active RSV (ELISA)” value (active RSV) is on record?
Its value is “verified”.

Which “binding to active RSV (ELISA)” value (active RSV) does the source give for “Ac-[Chg][Cpa]VSTT[Tyr3,5-I2]LPHYFDN-NH2 (Ac-[Chg][Cpa]VSTT[Tyr(3,5-I2)]LPHYFDN-NH2; reading uncertain; also: printed as Ac-[Chg][Cpa]VSTT[Tyr3,5-I2]LPHYFDN-NH2) [peptide 6]” here?
Its value is “verified”.
